Data reported in patent US20060069132A1, “Azolecarboxamide herbicides” (priority 2004, published 2006).

Assays:
[1] = tested on: barnyardgrass; experiment: Test B flooded paddy test; format: in vivo, Echinochloa crus-galli; conditions: 1000 g ai/ha, scale 0 to 100 (0 no effect, 100 complete control)
In short: (§1)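 Read-out: visual comparison with controls, scored 0 to 100, where 100 means complete control and 0 no effect. Formulated chemicals were applied postemergence to plants 2–18 cm tall (1- to 4-leaf), or to flooded-paddy plants at the 2-leaf stage, then held 13 to 15 days under glass.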

[2] = tested on: wild oat; experiment: Test B postemergence herbicide test; format: in vivo, Avena fatua
In short: as §1

[3] = tested on: large crabgrass; experiment: Test B pre-/postemergence herbicide test; format: in vivo, Digitaria sanguinalis
In short: (§2)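 Greenhouse pot assay with simultaneous preemergence (treated seed) and postemergence (2–18 cm seedlings) applications of surfactant-containing, non-phytotoxic solvent formulations. Response scored visually 13–15 days later on a 0–100 scale, 100 meaning complete control.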

[4] = tested on: barnyardgrass; experiment: Test B pre-/postemergence herbicide test; format: in vivo, Echinochloa crus-galli
In short: (§3)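 Pre: seeds sown, then sprayed. Post: 1–4-leaf plants (2–18 cm) sprayed at the same time. Paddy: flooded, treated at 2-leaf stage. Formulation: non-phytotoxic solvent with surfactant. Greenhouse 13–15 days; visual 0–100 score relative to controls.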

[5] = tested on: small flower umbrella sedge; experiment: Test B flooded paddy test; format: in vivo, Cyperus difformis; conditions: 1000 g ai/ha, scale 0 to 100 (0 no effect, 100 complete control)
In short: as §1

[6] = tested on: corn; experiment: Test B pre-/postemergence herbicide test; format: in vivo, Zea mays
In short: as §2

[7] = tested on: rice; experiment: Test B flooded paddy test; format: in vivo, Oryza sativa; conditions: 1000 g ai/ha, scale 0 to 100 (0 no effect, 100 complete control)
In short: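 Greenhouse test; postemergence application to plants at 1–4 leaves (2–18 cm); paddy species at 2 leaves; evaluated visually vs controls at 13–15 days; scale 0–100 (100 = complete control).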

[8] = tested on: giant foxtail; experiment: Test B pre-/postemergence herbicide test; format: in vivo, Setaria faberi
In short: as §2

[9] = tested on: morningglory; experiment: Test B pre-/postemergence herbicide test; format: in vivo, Ipomoea coccinea
In short: as §3

[10] = tested on: blackgrass; experiment: Test B postemergence herbicide test; format: in vivo, Alopecurus myosuroides
In short: as §1

[11] = tested on: ducksalad; experiment: Test B flooded paddy test; format: in vivo, Heteranthera limosa; conditions: 1000 g ai/ha, scale 0 to 100 (0 no effect, 100 complete control)
In short: as §1

[12] = tested on: Surinam grass; experiment: Test B pre-/postemergence herbicide test; format: in vivo, Urochloa decumbens
In short: as §2

[13] = tested on: wheat; experiment: Test B postemergence herbicide test; format: in vivo, Triticum aestivum; design: key to Wheat plant response rating: 0 = no effect, 100 = complete control
In short: as §1

[14] = tested on: pigweed; experiment: Test B pre-/postemergence herbicide test; format: in vivo, Amaranthus retroflexus
In short: as §2

[15] = tested on: velvetleaf; experiment: Test B pre-/postemergence herbicide test; format: in vivo, Abutilon theophrasti
In short: as §2

[16] = postemergence, 125 g ai/ha, visual rating, scale 0 (no effect) to 100 (complete control)
[17] = postemergence, 500 g ai/ha, visual rating, scale 0 (no effect) to 100 (complete control)
[18] = 500 g ai/ha; visual rating 0-100, 0 no effect, 100 complete control; preemergence
[19] = postemergence, 125 g ai/ha; visual rating, scale 0 (no effect) to 100 (complete control)
[20] = postemergence, 500 g ai/ha; visual rating, scale 0 (no effect) to 100 (complete control)
[21] = preemergence, 125 g ai/ha; 0 to 100 scale, 0 is no effect, 100 is complete control
[22] = 500 g ai/ha, visual rating 0-100, 0 no effect, 100 complete control, preemergence
[23] = preemergence, 125 g ai/ha, 0 to 100 scale, 0 is no effect, 100 is complete control
[24] = 125 g ai/ha, visual rating, scale 0 (no effect) to 100 (complete control), postemergence
[25] = postemergence, 500 g ai/ha, scale 0 to 100, 0 is no effect, 100 is complete control
[26] = 125 g ai/ha; 0 = no effect, 100 = complete control; preemergence
[27] = 125 g ai/ha; visual rating, scale 0 (no effect) to 100 (complete control); postemergence
[28] = 500 g ai/ha; visual rating, 0 = no effect, 100 = complete control; preemergence
[29] = postemergence, 500 g ai/ha; scale 0 to 100, 0 is no effect, 100 is complete control
[30] = 125 g ai/ha, 0 = no effect, 100 = complete control, preemergence
[31] = 500 g ai/ha, visual rating, 0 = no effect, 100 = complete control, preemergence
[32] = Postemergence, 500 g ai/ha, scale 0 (no effect) to 100 (complete control)
[33] = 125 g ai/ha; 0 is no effect, 100 is complete control; preemergence
[34] = 125 g ai/ha, 0 is no effect, 100 is complete control, preemergence
[35] = Postemergence, 500 g ai/ha, visual rating after 13 to 15 days, scale 0 (no effect) to 100 (complete control)
[36] = Postemergence, 500 g ai/ha; visual rating after 13 to 15 days, scale 0 (no effect) to 100 (complete control)

CCn1nc(C(C)(C)C)cc1C(=O)Nc1cccc(C#N)c1 [Compound 139]
Barnyardgrass plant response rating ([1]; visual rating, 13 to 15 days): 70 | Oat, Wild plant response rating [2, 16]: 10 | Oat, Wild plant response rating [2, 17]: 10 | Plant response rating, Crabgrass, Large [3, 18]: 100 | Crabgrass, Large plant response rating [3, 19]: 10 | Crabgrass, Large plant response rating [3, 20]: 20 | Plant response rating, Crabgrass, Large [3, 21]: 60 | Plant response rating, Barnyardgrass [4, 18]: 90 | Barnyardgrass plant response rating [4, 19]: 10 | Barnyardgrass plant response rating [4, 20]: 10 | Plant response rating, Barnyardgrass [4, 21]: 80 | Sedge, Umbrella plant response rating ([5]; visual rating, 13 to 15 days): 80 | Plant response rating, Corn [6, 18]: 40 | Corn plant response rating [6, 19]: 10 | Corn plant response rating [6, 20]: 20 | Plant response rating, Corn [6, 21]: 10 | Rice plant response rating ([7]; visual rating, 13 to 15 days): 50 | Plant response rating, Foxtail, Giant [8, 18]: 100 | Foxtail, Giant plant response rating [8, 19]: 10 | Foxtail, Giant plant response rating [8, 20]: 20 | Plant response rating, Foxtail, Giant [8, 21]: 70 | Plant response rating, Morningglory [9, 22]: 30 | Morningglory plant response rating [9, 16]: 10 | Morningglory plant response rating [9, 17]: 100 | Plant response rating, Morningglory [9, 23]: 10 | Blackgrass plant response rating [10, 19]: 0 | Blackgrass plant response rating [10, 20]: 10 | Ducksalad plant response rating ([11]; visual rating, 13 to 15 days): 80 | Plant response rating, Surinam Grass [12, 22]: 90 | Surinam Grass plant response rating [12, 16]: 10 | Surinam Grass plant response rating [12, 17]: 20 | Plant response rating, Surinam Grass [12, 23]: 30 | Wheat plant response rating [13, 17]: 10 | Plant response rating, Pigweed [14, 22]: 100 | Pigweed plant response rating [14, 16]: 60 | Pigweed plant response rating [14, 17]: 90 | Plant response rating, Pigweed [14, 23]: 90 | Plant response rating, Velvetleaf [15, 22]: 80 | Velvetleaf plant response rating [15, 16]: 20 | Velvetleaf plant response rating [15, 17]: 60 | Plant response rating, Velvetleaf [15, 23]: 50

CCN1N=C(C(C)(C)C)CC1C(=O)Nc1cc(C(=O)N2CCCC2)ccc1F (racemic) [Compound 309]
Barnyardgrass plant response rating [1]: 90 | Oat, Wild plant response rating [2, 24]: 20 | Oat, Wild plant response rating [2, 25]: 40 | Crabgrass, Large plant response rating (0 to 100 scale) [3, 26]: 60 | Crabgrass, Large plant response rating [3, 27]: 0 | Plant response rating, Crabgrass, Large [3, 28]: 100 | Crabgrass, Large plant response rating [3, 29]: 40 | Barnyardgrass plant response rating (0 to 100 scale) [4, 26]: 80 | Barnyardgrass plant response rating [4, 27]: 20 | Plant response rating, Barnyardgrass [4, 28]: 100 | Barnyardgrass plant response rating [4, 29]: 40 | Sedge, Umbrella plant response rating [5]: 80 | Corn plant response rating (0 to 100 scale) [6, 26]: 60 | Corn plant response rating [6, 27]: 20 | Plant response rating, Corn [6, 28]: 90 | Corn plant response rating [6, 29]: 60 | Rice plant response rating [7]: 80 | Foxtail, Giant plant response rating (0 to 100 scale) [8, 26]: 80 | Foxtail, Giant plant response rating [8, 27]: 20 | Plant response rating, Foxtail, Giant [8, 28]: 100 | Foxtail, Giant plant response rating [8, 29]: 40 | Morningglory plant response rating (0 to 100 scale) [9, 30]: 0 | Morningglory plant response rating [9, 24]: 0 | Plant response rating, Morningglory [9, 31]: 0 | Morningglory plant response rating [9, 25]: 40 | Blackgrass plant response rating [10, 27]: 10 | Blackgrass plant response rating [10, 29]: 30 | Ducksalad plant response rating [11]: 90 | Surinam Grass plant response rating (0 to 100 scale) [12, 30]: 60 | Surinam Grass plant response rating [12, 24]: 10 | Plant response rating, Surinam Grass [12, 31]: 100 | Surinam Grass plant response rating [12, 25]: 40 | Wheat plant response rating [13, 24]: 20 | Wheat plant response rating [13, 25]: 30 | Pigweed plant response rating (0 to 100 scale) [14, 30]: 70 | Pigweed plant response rating [14, 24]: 50 | Plant response rating, Pigweed [14, 31]: 100 | Pigweed plant response rating [14, 25]: 70 | Velvetleaf plant response rating [15, 24]: 20 | Plant response rating, Velvetleaf [15, 31]: 100 | Velvetleaf plant response rating [15, 25]: 40

C#CCNC(=O)c1cccc(NC(=O)c2nn(C(C)(C)C)nc2CC)c1 [Compound 380]
Barnyardgrass plant response rating [1]: 70 | Oat, Wild plant response rating [2, 24]: 10 | Oat, Wild plant response rating [2, 32]: 30 | Plant response rating (0 to 100 scale), Crabgrass, Large [3, 33]: 90 | Crabgrass, Large plant response rating [3, 27]: 0 | Crabgrass, Large plant response rating [3, 29]: 10 | Plant response rating (0 to 100 scale), Barnyardgrass [4, 33]: 70 | Barnyardgrass plant response rating [4, 27]: 0 | Barnyardgrass plant response rating [4, 29]: 0 | Sedge, Umbrella plant response rating [5]: 70 | Plant response rating (0 to 100 scale), Corn [6, 33]: 0 | Corn plant response rating [6, 27]: 0 | Corn plant response rating [6, 29]: 20 | Rice plant response rating [7]: 70 | Plant response rating (0 to 100 scale), Foxtail, Giant [8, 33]: 70 | Foxtail, Giant plant response rating [8, 27]: 0 | Foxtail, Giant plant response rating [8, 29]: 20 | Plant response rating (0 to 100 scale), Morningglory [9, 34]: 10 | Morningglory plant response rating [9, 24]: 20 | Morningglory plant response rating [9, 32]: 60 | Blackgrass plant response rating [10, 27]: 20 | Blackgrass plant response rating [10, 29]: 40 | Ducksalad plant response rating [11]: 80 | Plant response rating (0 to 100 scale), Surinam Grass [12, 34]: 40 | Surinam Grass plant response rating [12, 24]: 10 | Surinam Grass plant response rating [12, 32]: 30 | Wheat plant response rating [13, 24]: 10 | Wheat plant response rating ([13]; 500 g ai/ha, scale 0 to 100, 0 no effect, 100 complete control, preemergence): 100 | Wheat plant response rating [13, 32]: 10 | Plant response rating (0 to 100 scale), Pigweed [14, 34]: 100 | Pigweed plant response rating [14, 24]: 50 | Pigweed plant response rating [14, 32]: 80 | Plant response rating (0 to 100 scale), Velvetleaf [15, 34]: 10 | Velvetleaf plant response rating [15, 24]: 10 | Velvetleaf plant response rating [15, 32]: 30

C=CCn1nc(C(C)(C)C)cc1C(=O)Nc1cccc(C(C)=NO)c1 [Compound 117]
Barnyardgrass plant response rating ([1]; visual rating, 13 to 15 days): 70 | Plant response rating, Oat, Wild [2, 35]: 20 | Oat, Wild plant response rating [2, 16]: 10 | Plant response rating, Crabgrass, Large [3, 18]: 100 | Plant response rating, Crabgrass, Large [3, 36]: 30 | Crabgrass, Large plant response rating [3, 19]: 10 | Plant response rating, Crabgrass, Large [3, 21]: 90 | Plant response rating, Barnyardgrass [4, 18]: 90 | Plant response rating, Barnyardgrass [4, 36]: 30 | Barnyardgrass plant response rating [4, 19]: 20 | Plant response rating, Barnyardgrass [4, 21]: 60 | Sedge, Umbrella plant response rating ([5]; visual rating, 13 to 15 days): 90 | Plant response rating, Corn [6, 18]: 30 | Plant response rating, Corn [6, 21]: 0 | Rice plant response rating ([7]; visual rating, 13 to 15 days): 50 | Plant response rating, Foxtail, Giant [8, 18]: 80 | Plant response rating, Foxtail, Giant [8, 36]: 20 | Foxtail, Giant plant response rating [8, 19]: 10 | Plant response rating, Foxtail, Giant [8, 21]: 20 | Plant response rating, Morningglory [9, 22]: 60 | Plant response rating, Blackgrass [10, 36]: 10 | Blackgrass plant response rating [10, 19]: 0 | Ducksalad plant response rating ([11]; visual rating, 13 to 15 days): 80 | Plant response rating, Surinam Grass [12, 22]: 60 | Plant response rating, Surinam Grass [12, 35]: 40 | Surinam Grass plant response rating [12, 16]: 30 | Plant response rating, Surinam Grass [12, 23]: 30 | Plant response rating, Wheat [13, 35]: 20 | Wheat plant response rating [13, 16]: 10 | Plant response rating, Pigweed [14, 22]: 90 | Plant response rating, Pigweed [14, 35]: 90 | Pigweed plant response rating [14, 16]: 50 | Plant response rating, Pigweed [14, 23]: 60 | Plant response rating, Velvetleaf [15, 22]: 70 | Plant response rating, Velvetleaf [15, 35]: 50 | Velvetleaf plant response rating [15, 16]: 20 | Plant response rating, Velvetleaf [15, 23]: 60
